{
  "source": "patent US10806726B2",
  "about": "“Methods of using indazole-3-carb oxamides and their use as Wnt/B-catenin signaling pathway inhibitors” (Samumed, LLC, priority 2016, dated 2020)",
  "key": {"[1]": {"tested_on": "primary human mesenchymal stem cells (hMSCs)", "assay": "Tenocyte differentiation screening in hMSCs (SCXA-positive cells, 4 days)", "type": "cell-based", "settings": "96 h, fold change over DMSO", "summary_of_the_method": "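Primary hMSCs at passage 3–6 were treated with compound, fixed and immunostained for SCXA, and SCXA-positive cells per well were counted by imaging. Counts were normalized to DMSO wells as fold change, averaged over triplicates, and EC50 was fitted, with high-dose values manually corrected for solubility.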"}, "[2]": {"tested_on": "primary human mesenchymal stem cells (hMSCs)", "assay": "Tenocyte Differentiation Assay, hMSCs, 7 days (Example 11)", "type": "cell-based", "settings": "168 h, 750-5.8 nM, read-out: EC50, induction of SCXA, TenacinC and Tenomodulin expression", "experimental": "Primary human mesenchymal stem cells (hMSCs; Lonza Inc) were cultured in MSCGM™ Mesenchymal Stem Cell Growth Medium, with 10% FBS (Lonza) 10% fetal bovine serum (FBS) (Hyclone) at 37° C., 5% CO2. hMSCs were used between passage 2 and 6 and were never allowed to reach confluence to maintain a naive state.\nTenocyte Differentiation Assay. For tenocyte differentiation, hMSCs were plated in 384-well plates at 1×10^4 cells/well in Dulbecco's modified Eagle's medium (DMEM, ThermoFisher) with 1% fetal bovine serum (FBS) (Hyclone). Cells were then treated with DMSO (vehicle control) or compound 175 at 750 nM top concentration and 2-fold dilution up to 8 concentrations ([…], 166.6, 83.3, 41.7, 21.7, 10.8 and 5.8 nM) and incubated for 7 days at 37° C. A combination of BMP and FGF ([…], Peprotech, Inc.) was used as a positive control. […] Plates were imaged using a CX5 high-content imager (ThermoFisher) and the % of cells stained positive were determined using a cell scoring algorithm (ThermoFisher). Data was plotted and EC50 was calculated using Prism 5 (GraphPad Software Inc, La Jolla, Calif., USA). […]"}, "[3]": {"tested_on": "KC/GRO in plasma", "assay": "Rat Tendinopathy Model (2), plasma biomarker KC/GRO", "type": "in vivo", "experimental": "Fifty (50 μl) of Collagenase Type IA (10 mg/ml in PBS, pH 7.4, approximately 469 units/mg) (Catalog # C5138, Sigma, St. Louis, Mo.) was injected into the Achilles tendon of both ankles near the osteotendinous junction of male Sprague Dawley CD® IGS rats (CRL, Inc.), using insulin syringes with 28.5 G needle.\nRats were divided into 6 groups, with 6 animals per group except 8 animals in Group 2: Group 1 (sham injection), Group 2 (Collagenase-Vehicle with 0.5% Phx), Group 3 (Collagenase-compound 175 3 mg/mL with 0.5% BA), Group 4 (Collagenase-compound 175 10 mg/mL with 0.5% BA), Group 5 (Collagenase-compound 175 3 mg/mL with 0.5% Phx) and Group 6 (Collagenase-compound 175 10 mg/mL with 0.5% Phx). […] All rats were periodically observed for any pain, illnesses or abnormalities. At various time points, blood was collected for plasma in lithium heparin coated tubes by saphenous vein bleeding. For histology, rats were euthanized using isoflurane, tendons were isolated (n=8 tendons/group), fixed in 10% buffered formalin (Catalog # SF93-4, Fisher, Pittsburgh, Pa.) and H & E histology staining was performed at a secondary site (Pacific Pathology, San Diego, Calif.). For biochemical analysis, tendons were isolated (n=4 tendons/group), flash frozen in liquid nitrogen and then stored at −80° C. for subsequent biochemical analysis (not reported). Additionally, one (1) day after collagenase injection, 4 tendons were collected from Group 2 (vehicle) to observe the induction of inflammation (not reported).\nFollowing manufacturer's instructions, KC/GRO plasma levels were determined using the KC/GRO Immunoassay kit (Cat #900-K57, Peprotech, Rocky Hill, N.J.). Briefly, 96-well plates were coated with the anti-rat KC/GRO capture antibody overnight and washed to remove excess antibody. Plasma samples were incubated in the coated plates for 2 hours at room temperature. Following washes to remove unbound proteins, biotinylated anti-rat KC/GRO detection antibody was added and incubated for 30 mins at room temperature. Following washes to remove unbound excess antibody, avidin-HRP was added and incubated for 30 mins at room temperature. Following washes to remove unbound avidin-HRP, the ABTS substrate was added and the plates were read on the Cytation 3 plate reader (Biotek Inc., Winooski, Vt.) at an absorbance of 525 nm with correction at 450 nm. All samples were processed in triplicate."}},
  "data": [
    {"compound": "COc1ccc(NC(=O)c2n[nH]c3ccc(-c4cncc(CN5CCCCC5)c4)cc23)cn1", "note": "[compound 175, N-(6-Methoxypyridin-3-yl)-5-(5-(piperidin-1-ylmethyl)pyridin-3-yl)-1H-indazole-3-carboxamide]", "values": [
      {"measurement": "EC50", "setting": "[1]", "value": 10.4, "unit": "µM"},
      {"measurement": "EC50", "setting": "[2]", "value": "0.139 to 0.189", "unit": "µM"},
      {"measurement": "plasma KC/GRO vs vehicle", "setting": "[3]; 3 and 10 mg/mL, with either BA or Phx as preservative", "value": "significantly decreased the levels of KC/GRO in plasma"},
      {"measurement": "Plasma KC/GRO Concentration", "setting": "[3]; Day 0, Group 3, 3 mg/mL, 0.5% BA", "value": "78.2 ± 14.9", "unit": "pg/mL"},
      {"measurement": "Plasma KC/GRO Concentration", "setting": "[3]; Day 0, Group 4, 10 mg/mL, 0.5% BA", "value": "224 ± 40.1", "unit": "pg/mL"},
      {"measurement": "Plasma KC/GRO Concentration", "setting": "[3]; Day 0, Group 5, 3 mg/mL, 0.5% Phx", "value": "112 ± 74.0", "unit": "pg/mL"},
      {"measurement": "Plasma KC/GRO Concentration", "setting": "[3]; Day 0, Group 6, 10 mg/mL, 0.5% Phx", "value": "254 ± 60.6", "unit": "pg/mL"},
      {"measurement": "Plasma KC/GRO Concentration", "setting": "[3]; Day 1, Group 3, 3 mg/mL, 0.5% BA", "value": "472 ± 47.2", "unit": "pg/mL"},
      {"measurement": "Plasma KC/GRO Concentration", "setting": "[3]; Day 1, Group 4, 10 mg/mL, 0.5% BA", "value": "360 ± 31.4", "unit": "pg/mL"},
      {"measurement": "Plasma KC/GRO Concentration", "setting": "[3]; Day 1, Group 5, 3 mg/mL, 0.5% Phx", "value": "416 ± 47.9", "unit": "pg/mL"},
      {"measurement": "Plasma KC/GRO Concentration", "setting": "[3]; Day 1, Group 6, 10 mg/mL, 0.5% Phx", "value": "375 ± 44.4", "unit": "pg/mL"},
      {"measurement": "Plasma KC/GRO Concentration", "setting": "[3]; Day 3, Group 3, 3 mg/mL, 0.5% BA", "value": "449 ± 53.9", "unit": "pg/mL"},
      {"measurement": "Plasma KC/GRO Concentration", "setting": "[3]; Day 3, Group 4, 10 mg/mL, 0.5% BA", "value": "454 ± 52.2", "unit": "pg/mL"},
      {"measurement": "Plasma KC/GRO Concentration", "setting": "[3]; Day 3, Group 5, 3 mg/mL, 0.5% Phx", "value": "374 ± 89.1", "unit": "pg/mL"},
      {"measurement": "Plasma KC/GRO Concentration", "setting": "[3]; Day 3, Group 6, 10 mg/mL, 0.5% Phx", "value": "405 ± 42.1", "unit": "pg/mL"},
      {"measurement": "Plasma KC/GRO Concentration", "setting": "[3]; Day 5, Group 3, 3 mg/mL, 0.5% BA", "value": "561 ± 97.2", "unit": "pg/mL"},
      {"measurement": "Plasma KC/GRO Concentration", "setting": "[3]; Day 5, Group 4, 10 mg/mL, 0.5% BA", "value": "327 ± 49.9", "unit": "pg/mL"},
      {"measurement": "Plasma KC/GRO Concentration", "setting": "[3]; Day 5, Group 5, 3 mg/mL, 0.5% Phx", "value": "431 ± 24.5", "unit": "pg/mL"},
      {"measurement": "Plasma KC/GRO Concentration", "setting": "[3]; Day 5, Group 6, 10 mg/mL, 0.5% Phx", "value": "328 ± 37.1", "unit": "pg/mL"},
      {"measurement": "Plasma KC/GRO Concentration", "setting": "[3]; Day 7, Group 3, 3 mg/mL, 0.5% BA", "value": "445 ± 54.5", "unit": "pg/mL"},
      {"measurement": "Plasma KC/GRO Concentration", "setting": "[3]; Day 7, Group 4, 10 mg/mL, 0.5% BA", "value": "396 ± 92.4", "unit": "pg/mL"},
      {"measurement": "Plasma KC/GRO Concentration", "setting": "[3]; Day 7, Group 5, 3 mg/mL, 0.5% Phx", "value": "422 ± 47.9", "unit": "pg/mL"},
      {"measurement": "Plasma KC/GRO Concentration", "setting": "[3]; Day 7, Group 6, 10 mg/mL, 0.5% Phx", "value": "299 ± 53.9", "unit": "pg/mL"},
      {"measurement": "Plasma KC/GRO Concentration", "setting": "[3]; Day 14, Group 3, 3 mg/mL, 0.5% BA", "value": "319 ± 57.7", "unit": "pg/mL"},
      {"measurement": "Plasma KC/GRO Concentration", "setting": "[3]; Day 14, Group 4, 10 mg/mL, 0.5% BA", "value": "343 ± 59.4", "unit": "pg/mL"},
      {"measurement": "Plasma KC/GRO Concentration", "setting": "[3]; Day 14, Group 5, 3 mg/mL, 0.5% Phx", "value": "505 ± 41.0", "unit": "pg/mL"},
      {"measurement": "Plasma KC/GRO Concentration", "setting": "[3]; Day 14, Group 6, 10 mg/mL, 0.5% Phx", "value": "265 ± 20.8", "unit": "pg/mL"},
      {"measurement": "Plasma KC/GRO Concentration", "setting": "[3]; Day 21, Group 3, 3 mg/mL, 0.5% BA", "value": "150 ± 53.8", "unit": "pg/mL"},
      {"measurement": "Plasma KC/GRO Concentration", "setting": "[3]; Day 21, Group 4, 10 mg/mL, 0.5% BA", "value": "350 ± 25.6", "unit": "pg/mL"},
      {"measurement": "Plasma KC/GRO Concentration", "setting": "[3]; Day 21, Group 5, 3 mg/mL, 0.5% Phx", "value": "226 ± 37.3", "unit": "pg/mL"},
      {"measurement": "Plasma KC/GRO Concentration", "setting": "[3]; Day 21, Group 6, 10 mg/mL, 0.5% Phx", "value": "342 ± 39.7", "unit": "pg/mL"},
      {"measurement": "plasma KC/GRO levels, range", "setting": "[3]; Days 5-21, all four treated groups", "value": "150 to 561", "unit": "pg/mL"}
    ]}
  ]
}
